Assay results published in patent US20070087021A1, “METHOD OF PROTECTING AGAINST CHRONIC INFECTIONS” (priority 1997, published 2007).

How the values were obtained:
coccidiosis [1] = test: Paired-barn comparison repeated: vaccine/monensin treatment vs monensin alone; assay type: in vivo, poultry; conditions: cockerels
Description: (§1) A gel form vaccine was prepared by first adding 200 ml of hot tap water to 5 gm of kappa carrageenan Bengel MB 910 in a container and mixing until the MB 910 had dissolved. To this solution was added 200 ml of a solution containing 500 oocysts per ml of a mixture of Eimeria acervulina, E. maxima and E. tenella and the combined solution was mixed. The solution was then poured into a plastic watering dish and allowed to cool and get at 4° C.
(§2) A paired-barn comparison was conducted between use of a anticoccidial ionophore and the method of the present invention for protecting poultry against coccidiosis. 51,000 birds were divided into two groups. One group was maintained on feed containing 60 mg per kilogram of feed of salinomycin sodium COXISTAC (Pfizer). The second group was administered the vaccine prepared in accordance with Example 1 on Day 1. These birds were maintained on feed with no medication for 10 days. Thereafter, 60 mg per kilogram of salinomycin sodium was utilized in the feed for a further 10 days after which the animals were maintained on non-medicated feed until shipping. A virginiamysin based growth promotant STAFAC (SmithKline Beecham) at a level of 11 mg per kilogram of feed was used as a growth promotant in both groups.
The above example was repeated comparing vaccine/monensin treatment with monensin alone and the results from this are shown in Table 2.

coccidiosis [2] = test: Paired-barn comparison of anticoccidial ionophore (salinomycin) vs vaccine plus salinomycin for protecting poultry against coccidiosis; assay type: in vivo
Description: as §1, §2

[3] = birds, market age 42 days / 52 days

## CC[C@@]1([C@@H]2O[C@@H]([C@H]3O[C@@](O)(CO)[C@H](C)C[C@@H]3C)C[C@@H]2C)CC[C@H]([C@]2(C)CC[C@]3(C[C@H](O)[C@@H](C)[C@@H]([C@@H](C)[C@@H](OC)[C@H](C)C(=O)O)O3)O2)O1 [Monesin, monensin]
Coccidiosis [1]
  EEF (European Efficiency Factor): 2.23
  Feed Conversion Ratio: 2.19
Coccidiosis [1]; average at market (Monesin group: market age 47 days)
  Avg. Weight: 2.44 kg
Coccidiosis [1]; vaccine group: 2 weeks no medication, then 2 weeks monensin in feed
  Livability (%): 94.1%

## CC[C@@H](C(=O)[C@@H](C)[C@@H](O)[C@H](C)[C@@H]1O[C@@H]([C@@H](CC)C(=O)O)CC[C@@H]1C)[C@H]1O[C@]2(C=C[C@@H](O)[C@]3(CC[C@@](C)([C@H]4CC[C@](O)(CC)[C@H](C)O4)O3)O2)[C@H](C)C[C@@H]1C [Salinomycin, salinomycin sodium]
Coccidiosis [2]; [3]
  Avg. Weight: 2.72 kg
  Feed Conversion Ratio: 2.16
Coccidiosis [2]; birds, market age 42 days / 52 days, salinomycin sodium 60 mg per kg feed (vaccine group: 10 days no medication, then 10 days salinomycin)
  Livability (%): 91.8%
Coccidiosis [2]; related to percent livability, average market weight, feed conversion rate and market age
  EEF (European Efficiency Factor): 2.23
